Results: patent US10344002B2, “Compositions and methods for treating metabolic disorders” (NuSirt Sciences, Inc., priority 2016, dated 2019)

Columns and labels:
C2C12 muscle cells = experiment: Fatty acid oxidation (oxygen consumption rate, Seahorse XF-24) in C2C12 muscle cells; type: cell-based; settings: C2C12 muscle cells
Protocol: Cell Culture: C2C12 muscle cells were seeded with 40,000 cells per well on Seahorse tissue culture plates in Dulbecco's modified eagle's medium (DMEM) containing 10% fetal bovine serum (FBS) and antibiotics (1% penicillin-streptomycin) at 37° C. in 5% CO2. After reaching confluency (24 hours), cells were induced to differentiate with DMEM containing 2% Horse Serum for 3 to 4 days until myotubes were fully formed. Cells were then treated with indicated concentration of Compound 2 for 24 hours.
(§1) Compound 2 was dissolved in 100% DMSO to a stock concentration of 100 mM. This stock was further diluted to indicated concentrations in DMEM media.
Fatty acid oxidation: Baseline and palmitate-stimulated oxygen consumption rates were measured with XF-24 analyzer (Seahorse Bioscience (now part of Agilent Technologies), MA, USA). After 24 hour treatment with Compound 2 of differentiated C2C12 muscle cells, cells were washed twice with non-buffered carbonate-free pH 7.4 low glucose (2.5 mM) DMEM containing carnitine (0.5 mM), equilibrated with 600 μl of the same media in a non-CO2 incubator for 45 minutes, and then inserted into the instrument for 15 minutes of further equilibration, followed by O2 consumption measurement. Three successive baseline measures at five-minute intervals were taken prior to injection of palmitate (200 μM final concentration). Sets of three five-minute intervals followed by 10-minute time delay were continued over a 2 to 3 hour period after palmitate injection. The area under the curve of 02 consumption change from baseline for each sample was then calculated and used for subsequent analysis. Data are represented as mean±SD for each treatment group.

AMPK = experiment: Western blot, P-AMPK/AMPK in C2C12 muscle cells; type: cell-based; settings: 4 hours; for ratio of P-AMPK/AMPK (FIG. 6A): control approximately 0.75
Protocol: (§2) Cell Culture: C2C12 muscle cells were seeded with 400,000 cells per well on 6-well tissue culture plates in Dulbecco's modified eagle's medium (DMEM) containing 10% fetal bovine serum (FBS) and antibiotics (1% penicillin-streptomycin) at 37° C. in 5% CO2. After reaching confluency (24 hours), cells were induced to differentiate with DMEM containing 2% Horse Serum for 5 to 6 days until myotubes were fully formed. Cells were then treated with indicated concentration of Compound 2 for 4 and 24 hours.
as §1
(§3) Western blots: Phospho-AMPK, AMPK, Phospho-ACC, ACC antibodies were obtained from Cell Signaling (Danvers, Mass.). Sir2 antibody was obtained from MyBiosource (San Diego, Calif.). Protein levels of cell extracts were measured by BCA kit (Thermo Scientific, Pittsburgh, Pa.). For Western blot, 10-50 μg protein was resolved on 4-15% gradient polyacrylaminde gels (Criterion precast gel, Bio-Rad Laboratories, Hercules, Calif.), transferred to either PVDF or nitrocellulose membranes, incubated in blocking buffer (3% BSA or 5% non-fat dry milk in TBS) and then incubated with primary antibody (1:1000 dilution), washed and incubated with horseradish peroxidase- or fluorescence-conjugated secondary antibody (1:10000 dilution). Visualization was conducted using BioRad ChemiDoc instrumentation and software (Bio-Rad Laboratories, Hercules, Calif.) and band intensity was assessed using Image Lab 4.0 with correction for background and loading controls.

[1] = tested on: acetyl-CoA carboxylase (ACC); experiment: Western blot, phosphorylated/total acetyl-CoA carboxylase in C2C12 muscle cells; type: cell-based; settings: for increase in the ratio of phosphorylated to total ACC: 24 h; for ratio of phosphorylated/total ACC (FIG. 6B): 24 hours, control approximately 1.25
Protocol: as §2, §1, §3

Sir2 = experiment: Western blot, Sir2 protein expression in C. elegans treated from L1 stage to adulthood; type: in vivo; settings: for Sir2 protein expression, fold change of control (FIG. 7A): 3 days
Protocol: C. elegans culture: Synchronized L1 wild-type worms were transferred to NGM agar plates with the following treatments until adulthood (3 days): 1. control NGM plates, 2. NGM plate with 10 nM Compound 2 added to E. coli suspension, 3. NGM plate with 100 nM Compound 2 added to E. coli suspension.
as §3

adiponectin = experiment: Adiponectin gene expression (real-time PCR) in 3T3L1 adipocytes; type: cell-based; settings: for adiponectin expression, fold change to control (FIG. 8): 48 hours
Protocol: Cell Culture: 3T3L1 adipocytes were seeded with 20,000 cells per well on 96-well tissue culture plates in DMEM containing 10% FBS and 1% penicillin-streptomycin. After reaching confluency (3 days), cells were induced to differentiate with a standard differentiation media (DM2-L1, Zen-Bio Inc., NC) for 3 days, then cells were maintained in DMEM (10% FBS, 1% penicillin-streptomycin) for another 8 days to induce lipid accumulation. Cells were then treated with indicated concentration of Compound 2 for 48 hours.
as §1
Gene Expression: 3T3L1 adipocytes were grown and treated as described above. The medium was removed and the cells were washed with cold PBS. Cells Lysis, reverse transcription and real-time PCR was performed according to the instructions of the TaqMan® Gene Expression Cells-to-CT™ Kit manual (Life Technologies Inc, Cat #4399002). cDNA was probed with adiponectin and normalized to 18S.

3T3L1 adipocytes = experiment: Lipid accumulation (Oil Red Staining) in 3T3L1 adipocytes; type: cell-based; settings: 72 hours; for Oil Red absorbance (FIG. 11): control approximately 0.66
Protocol: Cell Culture: 3T3L1 adipocytes were seeded with 80,000 cells per well on 24-well tissue culture plates in high glucose (25 mM) DMEM containing 10% FBS and antibiotics. After reaching confluency (3 days), cells were induced to differentiate with a standard differentiation media (DM2-L1, Zen-Bio Inc., NC) for 3 days, then cells were maintained in DMEM (10% FBS, 1% penicillin-streptomycin) for another 8 days to induce lipid accumulation. Cells were then treated with indicated concentration of Compound 2 for 72 hours.
as §1
Lipid accumulation (Oil Red Staining): 3T3L1 adipocytes were seeded and treated as described above. After 72 hours of treatment with Compound 2, lipid accumulation in adipocytes was measured via Oil Red Staining. Cells were washed with phosphate buffered saline (PBS) once, then cells were fixated with 10% formalin for 1 hour. After removal of the formalin, cells were washed with ddH2O twice, then washed with 60% isopropanol. Cells were dried completely. Cells were stained with Oil Red working solution (˜5 mM) for 25 minutes, then immediately washed with ddH2O four times, then dried completely again. Oil Red dye was eluted with 100% isopropanol and absorbance was read at 500 nm. Unstained cells plus isopropanol was used as a blank and subtracted from all readings. Data are represented as mean±SEM for each treatment group.

## CC(C)C[C@@H]1NC(N=C(N)N)=NC1=O [Compound 2]
C2C12 muscle cells; 10 nM, 24 hour treatment, prior to palmitate injection, p=0.002
  increase of the baseline oxygen consumption rate (area under the curve): 60%
C2C12 muscle cells; after palmitate injection (200 μM), p=0.002
  further increase of palmitate-induced oxygen consumption vs control: ~75%
C2C12 muscle cells; concentrations in excess of luM (not shown)
  effect on baseline and palmitate-stimulated oxygen consumption rate (OCR): no effect
C2C12 muscle cells; dose-responsive only at 0-10 nM
  dose-response of OCR effects (area under the curve): plateaued between 10 and 100 nM
C2C12 muscle cells; higher concentrations (>100 nM)
  dose-response on baseline and palmitate-stimulated OCR: diminishing responses
AMPK; 10 nM
  effect on the ratio of P-AMPK/AMPK: no effect
  ratio of P-AMPK/AMPK (FIG. 6A): approximately 0.65
AMPK; 100 nM
  ratio of P-AMPK/AMPK (FIG. 6A): approximately 1.35
AMPK; 100 nM, p=0.03
  increase in the ratio of P-AMPK/AMPK: 78%
[1]; 10 nM
  increase in the ratio of phosphorylated to total ACC: 46%
  ratio of phosphorylated/total ACC (FIG. 6B): approximately 1.8
[1]; 100 nM
  increase in the ratio of phosphorylated to total ACC: 21%
  ratio of phosphorylated/total ACC (FIG. 6B): approximately 1.52
Sir2; 10 nM
  Sir2 protein expression, fold change of control (FIG. 7A): approximately 1.65 fold change
Sir2; 100 nM
  Sir2 protein expression, fold change of control (FIG. 7A): approximately 1.5 fold change
Sir2; L1 stage to adulthood (3 days), p=0.03
  increase in Sir2 protein expression: up to 60%
adiponectin; 10 nM and 100 nM, 48 hour treatment
  increase of adiponectin gene expression: approximately 35%
adiponectin; 10 nM
  adiponectin expression, fold change to control (FIG. 8): approximately 1.35 fold change
adiponectin; 100 nM
  adiponectin expression, fold change to control (FIG. 8): approximately 1.4 fold change
3T3L1 adipocytes; 1 nM, 500 nm
  Oil Red absorbance (FIG. 11): approximately 0.57
3T3L1 adipocytes; 10 nM, 500 nm
  Oil Red absorbance (FIG. 11): approximately 0.58
3T3L1 adipocytes; 50 nM, 500 nm
  Oil Red absorbance (FIG. 11): approximately 0.53
3T3L1 adipocytes; 100 nM, 500 nm
  Oil Red absorbance (FIG. 11): approximately 0.54
3T3L1 adipocytes; 200 nM, 500 nm
  Oil Red absorbance (FIG. 11): approximately 0.51
3T3L1 adipocytes; 350 nM, 500 nm
  Oil Red absorbance (FIG. 11): approximately 0.55
3T3L1 adipocytes; 500 nM
  Oil Red absorbance (FIG. 11): approximately 0.68
3T3L1 adipocytes; 50 to 350 nM, p<0.05
  reduction in lipid accumulation (plateau effect): up to 23%
3T3L1 adipocytes; higher concentration (500 nM)
  lipid reducing effect: lost
